The text below walks through data of patent US20230331604A1, “METHOD FOR THE ELECTROCHEMICAL CONTROL OF THE PHOTOSYNTHETIC METABOLISM OF PURPLE NON-SULFUR BACTERIA AND REDOX MEDIATORS THEREOF” (Zuccato HC S.r.l., priority 2020, published 2023).

The nature of series [1]: equilibrium potential of the redox mediator. Conditions: vs SCE reference electrode. In kind it is physicochemical. The text has this:
This is enabled by the use of suitable fat-soluble redox mediators ([2], [3]) capable of permeabilizing the bacterial membrane and entering the cytoplasm, in order to alter the oxidation state of the disulfide bond present in type A thioredoxins, as well as by appropriate light irradiation.

The subject of series [2] is Rhodobacter sphaeroides (ATCC 55304). Put plainly: bacteriochlorophyll synthesized by Rhodobacter sphaeroides under electrochemical control vs aerobic growth (absorption spectra). In kind it is cell-based. Conditions: 50 nM safranin, acetone/methanol extract, absorbance normalized to 660 nm.
Description: A homemade potentiostat was used as an external source of free energy, capable of providing a current of up to 100 mA and keeping the potential constant within the range of −2 V÷+2 V).
The materials of the electrodes used are: • Working electrode: stainless steel grid with 1 mm mesh spacing. • Counter electrode: graphite bars (0.8 cm in diameter, 30 cm long) • Reference electrode: (SCE)
Safranin T, molecular mass equal to 350.85. (Fluka) at a concentration equal to 50 nM, was used as redox mediator in the cell.
The solution inside the fermenter/reactor was kept under mild stirring to facilitate the recirculation of the redox mediator molecules.

Take `Cc1cc2nc3cc(C)c(N)cc3[n+](-c3ccccc3)c2cc1N.[Cl-]` [Safranin T, safranin T]: the equilibrium potential result in series [1] was “about −540 mV”. The “intensity of bacteriochlorophyll absorption bands compared to the corresponding aerobic population” value in series [2] is “almost tripled”.
